What was measured:
[1] = target: T1, glycogen synthase kinases-3α (Homo sapiens, UniProt P49840); assay: GSK-3 inhibition, Z'-LYTE kinase assay; format: biochemical
T1 construct: purchased Life Technologies/Thermo Fisher Scientific, SelectScreen Services (Madison, WI, USA)
Method: (§1) The determination of the inhibition of glycogen synthase kinases-3α and -3β by allyl HTT and 4-MSOB HTT was performed via contract research with Life Technologies/Thermo Fisher Scientific by sending the compounds dissolved in 100% DMSO to SelectScreen Services (Madison, WI, USA). The tested concentrations in the Z'-LYTE assay were up to 100 μM and standards were prepared as duplicates. The Z'-LYTE kinase assay is a fluorescence-based assay using a coupled-enzyme format and the different sensitivity of phosphorylated and non-phosphorylated peptides regarding their fluorescence. The data are shown as mean ± SD. Due to the impression of significant bioactivity, further comparisons were performed. […] Stars report different significance levels: ^*p ≤ 0.05, ^**p ≤ 0.01, and ^***p ≤ 0.001.

[2] = target: T2, glycogen synthase kinases-3β (Homo sapiens, UniProt P49841); assay: GSK-3 inhibition, Z'-LYTE kinase assay; format: biochemical
T2 construct: purchased Life Technologies/Thermo Fisher Scientific, SelectScreen Services (Madison, WI, USA)
T2 sequence (P49841 whole entry): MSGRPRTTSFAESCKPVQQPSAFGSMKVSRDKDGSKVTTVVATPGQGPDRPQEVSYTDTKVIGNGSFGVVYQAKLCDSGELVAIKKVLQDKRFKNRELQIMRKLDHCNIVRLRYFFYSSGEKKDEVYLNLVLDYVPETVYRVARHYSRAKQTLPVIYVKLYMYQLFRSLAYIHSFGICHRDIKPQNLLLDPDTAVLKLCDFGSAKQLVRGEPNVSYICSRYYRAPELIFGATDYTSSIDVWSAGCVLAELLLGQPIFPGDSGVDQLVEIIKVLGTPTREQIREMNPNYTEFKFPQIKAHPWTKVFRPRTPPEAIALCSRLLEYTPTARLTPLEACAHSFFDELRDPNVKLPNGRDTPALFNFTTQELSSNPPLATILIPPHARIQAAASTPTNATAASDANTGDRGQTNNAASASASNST
Method: as §1

T1 sequence (P49840 whole entry): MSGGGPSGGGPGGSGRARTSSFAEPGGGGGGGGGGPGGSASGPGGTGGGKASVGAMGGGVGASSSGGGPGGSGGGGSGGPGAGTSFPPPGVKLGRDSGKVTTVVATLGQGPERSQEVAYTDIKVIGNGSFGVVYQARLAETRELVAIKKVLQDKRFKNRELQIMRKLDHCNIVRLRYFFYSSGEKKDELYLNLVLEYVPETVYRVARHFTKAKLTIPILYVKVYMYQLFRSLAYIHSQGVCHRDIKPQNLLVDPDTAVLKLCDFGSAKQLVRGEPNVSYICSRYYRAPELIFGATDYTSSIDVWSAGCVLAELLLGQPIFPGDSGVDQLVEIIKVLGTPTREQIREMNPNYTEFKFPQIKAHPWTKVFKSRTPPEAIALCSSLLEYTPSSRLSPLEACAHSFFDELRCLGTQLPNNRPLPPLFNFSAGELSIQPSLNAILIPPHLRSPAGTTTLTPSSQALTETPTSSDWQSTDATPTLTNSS

## C[S+]([O-])CCCCN1C(=S)SCC1O (centres unmarked) [4-MSOB HTT, 4-hydroxy-3-(4-(methylsulfinyl)butyl)thiazolidine-2-thione]
[1]
  inhibition at 100 µM: ~29%

## C=CCN1C(=S)SCC1O (centres unmarked) [allyl HTT, 3-allyl-4-hydroxythiazolidine-2-thione]
[2]
  inhibition at 100 µM: ~20%
